This is an account of results in US20060193902A1, “Pharmaceutical compositions containing active agents having a lactone group and transition metal ions” (Celator Pharmaceuticals, Inc., priority 2003, published 2006).

One data set has as its system DNA. The conditions noted are these: copper(II) complex, long-wave UV light; CuSO4 and drug 10 μM; cited from earlier work.
Data set [1] is described as follows: Lactone/carboxy ratio of irinotecan in buffers with or without copper sulphate, by HPLC (Example 2). In kind it is physicochemical. The conditions noted are these: presence of CuSO4, pH 7.5.
Data set [2] is described as follows: Thin layer chromatography for ring closed lactone and ring open carboxylate forms of irinotecan (Example 5). The class given is physicochemical. The conditions noted are these: HEPES buffered saline, acidic conditions, 30 minutes; lactone form. The procedure: Three sets of liposomal formulations of irinotecan were prepared as previously described. […] Any unencapsulated irinotecan was removed by column chromatography. […] The third formulation (B) contained irinotecan and floxuridine in the final composition. In this formulation the liposomes were prepared in the presence of floxuridine and then unencapsulated drug was removed by chromatography. […] In all cases the external pH was adjusted to match the internal liposomal pH prior to irinotecan loading.
Liposomal formulations of irinotecan were first analyzed for ring closed lactone and ring open carboxylate forms of the drug by thin layer chromatography. A set of standards were first prepared and used as a reference for the liposomal formulations. […] The TLC plates were dried overnight at room temperature and then run in a second solvent system composed of butanol:acetic acid:water:acetone (4:2:1:1). […] As the pH of the solution increased, the presence of the carboxylate band appears.
The plates were run in the same solvent systems and visualized by UV light.

The conditions of data set [3]: 3 hours of incubation in human blood; cited from earlier work.

Regarding `CC[C@@]1(O)C(=O)OCc2c1cc1n(c2=O)Cc2cc3cc(O)ccc3nc2-1` [10-hydroxycamptothecin], in the data set with DNA, the DNA cleavage is 1.7%.
As to `CCc1c2c(nc3ccc(OC(=O)N4CCC(N5CCCCC5)CC4)cc13)-c1cc3c(c(=O)n1C2)COC(=O)[C@]3(O)CC` [Irinotecan, irinotecan], the “irinotecan remaining in the lactone form” value in data set [1] (4 hours) worked out at 56.39%. In addition, in data set [1] (24 hours), the “irinotecan present in the ring-closed, lactone form” value is listed as 58.66%. In data set [2], the “irinotecan species seen by TLC in aqueous standards” value is on record as “dominant species”.
`CC[C@@]1(O)C(=O)OCc2c1cc1n(c2=O)Cc2cc3ccccc3nc2-1` [camptothecin]: the DNA cleavage in the data set on DNA is reported as 51%. Further, in data set [3], the lactone ring present was 5%.
As to `CC[C@H]1C(=O)OCc2c1cc1n(c2=O)Cc2cc3ccccc3nc2-1` [20-deoxycamptothecin], the DNA cleavage in the data set with DNA is reported as 28%.
